Data set [1] deals with T1, DP1 receptor (Homo sapiens, UniProt Q13258).
T1 construct: expressed in transfected cells
T1 sequence (Q13258 1-359): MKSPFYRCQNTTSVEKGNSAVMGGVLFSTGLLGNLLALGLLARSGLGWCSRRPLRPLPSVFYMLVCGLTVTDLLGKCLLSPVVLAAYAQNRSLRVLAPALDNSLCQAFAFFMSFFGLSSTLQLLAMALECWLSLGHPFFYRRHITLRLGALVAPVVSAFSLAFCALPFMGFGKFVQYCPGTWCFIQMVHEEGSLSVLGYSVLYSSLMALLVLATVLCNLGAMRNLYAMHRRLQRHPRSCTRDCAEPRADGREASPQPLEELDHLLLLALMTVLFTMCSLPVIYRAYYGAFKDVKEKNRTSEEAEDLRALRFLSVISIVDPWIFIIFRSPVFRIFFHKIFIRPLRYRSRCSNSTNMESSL
The data set is described as follows: cAMP assay (TR-FRET or HTRF kit, forskolin), Examples 5 and 6. The format is cell-based. Particulars: read-out: EC50, DP receptor. As for the experimental part:
(§1) [table] Prodrug XV (for structure see FIG. 10) as well as treprostinil were tested for 3 G-protein-coupled receptors (GPCRs), namely DP1, EP2, and IP, using cyclic adenosine monophosphate (cAMP) assay. Cyclic AMP assay kits: Multiscreen™ TR-FRET cAMP 1.0 No Wash Assay Kit (Multispan, Inc., Cat #MSCM01-25) and HTRF cAMP HiRange Kit (CisBio, Cat #62AM6PEC). Instruments: FlexStation III (Molecular Devices). Cyclic AMP (cAMP) Assay: cAMP assays were performed according to the manufacturer's protocol using Multiscreen™ TR-FRET cAMP 1.0 No Wash Assay Kit or HTRF cAMP HiRange Kit. […] The reaction was terminated by sequentially adding sequentially adding trFluor™ Eu-labeled cAMP and trFluor™ 650-labeled anti-cAMP antibody or D2-labeled cAMP and cryptate-labeled anti-cAMP antibody in lysis buffer. The plate was then incubated at room temperature for 60 minutes before reading fluorescent emissions at 620 nm and 665 or 668 nm with excitation at 314 nm on FlexStation III (Molecular Devices). Cyclic AMP (cAMP) assays: Cyclic AMP assay results are shown as “Ratio 665/620×10,000” (ratio of fluorescence at 665 nm and 620 nm×10,000) or “Ratio 668/620×10,000” (ratio of fluorescence at 668 nm and 620 nm×10,000). Data in graphs were represented in Mean±SD. Dose-dependent responses were fitted with sigmoidal dose-response curves allowing variable slopes using GraphPad Prism versions 4, 5 or 6 (Graphpad Prism). Treprostinil Prodrug XIV (for structure see FIG. 10) as well as treprostinil were tested for 3 G-protein-coupled receptors (GPCRs), namely DP1, EP2, and IP, using cyclin adenosine monophosphate (cAMP) assay. Cyclic AMP assay kits: Multiscreen™ TR-FRET cAMP 1.0 No Wash Assay Kit (Multispan, Inc., Cat #MSCM01-25) and HTRF cAMP HiRange Kit (CisBio, Cat #62AM6PEC). Cyclic AMP (cAMP) Assay: cAMP assays were performed according to the manufacturer's protocol using Multiscreen™ TR-FRET cAMP 1.0 No Wash Assay Kit or HTRF cAMP HiRange Kit. […] The reaction was terminated by sequentially adding sequentially adding trFluor™ Eu-labeled cAMP and trFluor™ 650-labeled anti-cAMP antibody or D2-labeled cAMP and cryptate-labeled anti-cAMP antibody in lysis buffer. The plate was then incubated at room temperature for 60 minutes before reading fluorescent emissions at 620 nm and 665 or 668 nm with excitation at 314 nm on FlexStation III (Molecular Devices). Cyclic AMP (cAMP) assays: Cyclic AMP assay results are shown as “Ratio 665/620×10,000” (ratio of fluorescence at 665 nm and 620 nm×10,000) or “Ratio 668/620×10,000” (ratio of fluorescence at 668 nm and 620 nm×10,000). Data in graphs were represented in Mean±SD. Dose-dependent responses were fitted with sigmoidal dose-response curves allowing variable slopes using GraphPad Prism versions 4, 5 or 6 (Graphpad Prism).
For orientation: Changes in cAMP serve as a functional read-out for many G protein-coupled receptors.

The target in data set [2] is T2, EP2 receptor (Homo sapiens, UniProt P43116).
T2 construct: expressed in transfected cells
The description is as above. In kind it is cell-based. Particulars: read-out: EC50, EP receptor. As for the experimental part:
as §1

The target of data set [3] is T3, IP1 receptor (Homo sapiens, UniProt P43119).
T3 construct: expressed in transfected cells
The description is as above. In kind it is cell-based. The settings on record: read-out: EC50, IP receptor. Here is the method: as §1

In data set [4] the test system is Sprague Dawley rats. The data set is described as follows: Rat intraplantar injection model, von Frey test (Example 10). The format is in vivo, Sprague Dawley rat. Particulars: 1 μg/mL or 100 μg/mL; 15 and 90 minutes post-injection. As for the experimental part: (§2) Male Sprague Dawley rats (n=56) were allocated into 7 groups of 8 animals per group. […] Each group was compared to the phosphate buffer (50-mM phosphate buffer with 50-mM sodium chloride at pH=7.4) treated group, which served as the control (Group 1).
(§3) Animals were administered 0.1 mL of test material by subcutaneous injection into the paw pad (Intraplantar injection) at time zero. Then, the animals were subsequently evaluated for their response to mechanical (von Frey filaments) and thermal stimuli, 15 and 90 minutes post-injection. The von Frey test was conducted prior to the thermal test, which followed immediately within minutes for each animal. In addition, clinical observation scoring of the animal's reaction to injection was conducted.
Mechanical pain sensitivity was tested using the von Frey test, which measures the withdrawal force threshold of the animals. The lower the force applied represents a greater sensitivity to the stimulus. The von Frey test was performed 15 and 90 minutes post-test item injection.

Data set [5] concerns Sprague Dawley rats. The data set is described as follows: Rat intraplantar injection model, thermal pain sensitivity (Example 10). The settings on record: 1 μg/mL or 100 μg/mL; 15 minutes post-administration. The format is in vivo, Sprague Dawley rat. Here is the method:
as §2, §3
The sensitivity of animals to a thermal pain stimulus was assessed immediately following the von Frey test. The time until withdrawal of the right-injected leg from a heat source was measured, and the lower (faster) the time of response represents a greater sensitivity to the stimulus. The test was performed 15 and 90 minutes post-test item injection.

Data set [6] is described as follows: Equilibrium solubility in vehicle. In kind it is physicochemical. Particulars: aqueous buffer, thermodynamic from solid, 20 mM sodium phosphate dibasic with 125 mM sodium chloride; for solubility thermodynamic at 23 h: T0 hours, read-out: Equilibrium solubility, T0 hours Concentration; for solubility thermodynamic at 24 h: T24 hours, read-out: Equilibrium solubility, T24 hours Concentration; for solubility thermodynamic at 72 h: T72 hours, read-out: Equilibrium solubility, T72 hours Concentration. Here is the method:
(§4) Each prodrug was dissolved in a vehicle containing 20 mM sodium phosphate dibasic with 125 mM sodium chloride. Prodrugs were prepared at saturation concentrations by weighing 15-30 mg of prodrug in to a 4 mL clear glass vial and dissolving in an appropriate volume of vehicle (0.5-1.0 mL) to achieve a nominal saturation concentration of 30 mg/mL. The solutions were mixed for 23 hours on a rotating mixer. […] The resultant supernatant solutions were isolated from undissolved prodrug by centrifugation at 15000 RPM for 15 min. Supernatants were transferred to clear glass vials and stored at ambient temperature. […] The resultant samples were assayed against treprostinil to determine prodrug concentration. At each testing interval (0, 24, 72 hours) the supernatant was assayed for prodrug concentration and purity by area %.

Data set [7] is described as follows: Solution stability in vehicle (UPLC area %). In kind it is physicochemical. The settings on record: for Solution stability, T0 Purity: ambient. As for the experimental part:
as §4

Data set [8] is described as follows: Stability in 200 mM potassium phosphate buffer (pH 7.4). In kind it is physicochemical. Particulars: 1 μM. As for the experimental part:
According to the earlier aqueous solution stability study, all prodrugs are stable in 20 mM Sodium Phosphate dibasic with 125 mM NaCl at saturation concentrations (3-30 mg/ml). Also, in the method development work, it was also observed that the most unstable prodrugs III, IV and XIV were stable in 200 mM potassium phosphate buffer (pH 7.4) at a low concentration of 1 μM.

Data set [9] is described as follows: In vitro metabolic stability of prodrugs in liver microsomes, across all species. The format is in vitro ADME, human, Beagle dog, Sprague Dawley rat, Cynomolgus monkey. Here is the method: In the second assay, four prodrugs (III, IV, VII and XIV) were tested in Cyno monkey liver microsomes.
The mark [10] stands for this setting: 20 mM sodium phosphate dibasic with 125 mM sodium chloride, T0.

pEC50: −log10 of the molar value. Converted amounts (≈) assume the structure as drawn. Read-outs that look alike come from different tables or passages of the source.

T3 sequence (P43119 whole entry): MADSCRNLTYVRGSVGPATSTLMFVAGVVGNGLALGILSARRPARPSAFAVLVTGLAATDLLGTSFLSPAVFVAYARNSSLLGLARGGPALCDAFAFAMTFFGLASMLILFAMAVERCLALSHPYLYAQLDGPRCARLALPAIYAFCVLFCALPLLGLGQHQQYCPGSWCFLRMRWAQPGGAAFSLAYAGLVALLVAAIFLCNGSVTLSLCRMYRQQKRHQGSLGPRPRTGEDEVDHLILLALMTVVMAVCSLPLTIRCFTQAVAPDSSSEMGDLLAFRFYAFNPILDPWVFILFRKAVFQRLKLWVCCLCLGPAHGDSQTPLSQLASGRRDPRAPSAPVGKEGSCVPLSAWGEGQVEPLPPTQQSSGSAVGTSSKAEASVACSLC
T2 sequence (P43116 whole entry): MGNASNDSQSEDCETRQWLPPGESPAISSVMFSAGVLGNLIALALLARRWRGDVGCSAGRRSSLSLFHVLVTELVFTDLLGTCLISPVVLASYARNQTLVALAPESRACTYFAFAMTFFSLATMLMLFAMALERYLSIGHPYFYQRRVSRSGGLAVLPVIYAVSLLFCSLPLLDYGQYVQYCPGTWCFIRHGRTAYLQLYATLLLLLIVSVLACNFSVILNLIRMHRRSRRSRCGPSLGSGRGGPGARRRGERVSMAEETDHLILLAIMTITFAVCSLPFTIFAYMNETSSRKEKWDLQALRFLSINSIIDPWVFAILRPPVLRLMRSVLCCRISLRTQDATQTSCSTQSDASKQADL

What is called pEC50 is −log10 of the EC50, conventionally taken in molar units. As for `CCCCC[C@H](O)CC[C@@H]1[C@H]2Cc3cccc(OCC(=O)OCC(=O)O)c3C[C@H]2C[C@H]1O` [Prodrug XV], the results for the pEC50 in [1] (Table 3 (Example 5)), in data set [2] (Table 3 (Example 5)) and in data set [3] (Table 3 (Example 5)) were 8.16, 7.38 and 8.37, respectively. Further, the “von Frey withdrawal force threshold vs phosphate buffer group” value in [4] is on record as “reduced withdrawal force threshold”. In addition, in [5], the “thermal paw withdrawal time vs phosphate buffer treated group” value is “statistically significantly faster paw withdrawal time”.
In general, solubility refers to the concentration that dissolves in the medium under given conditions. As for `CCCCC[C@H](O)CC[C@@H]1[C@H]2Cc3cccc(OCC(=O)NS(C)(=O)=O)c3C[C@H]2C[C@H]1O` [Prodrug XIV, treprostinil methanesulfonamide], in [1] (Table 4 (Example 6)), the pEC50 is 7.41. For the same compound, the pEC50 in data set [2] (Table 4 (Example 6)) was 7.17. Besides, in [3] (Table 4 (Example 6)), the pEC50 was 8.48. Moreover, in [6], the solubility thermodynamic at 23 h was 29.5 mg/mL (≈ 63.1 mM), the solubility thermodynamic at 24 h amounted to 27.5 mg/mL (≈ 58.8 mM) and the solubility thermodynamic at 72 h was 26.6 mg/mL (≈ 56.9 mM). Also, the solubility at 23 h in data set [6] (approximate, read-out: Solubility in the selected vehicle) is around 30 mg/mL (≈ 64.2 mM). For the same compound, in data set [7] (setting [10]), the “T0 Residual Treprostinil” value is given as 0.08 % Area and the “Solution stability, T0 Purity” value is given as 94.20 % Area. Also, the “treprostinil formation in the vehicle” value in [7] (formed over 72 hours) came out at 0.15%. Also, the “T24 Residual Treprostinil” value in data set [7] (same vehicle, T24) is 0.13 % Area. Besides, the “T72 Residual Treprostinil” value in [7] (same vehicle, T72) is given as 0.23 % Area. In [7] (same vehicle), the “Solution stability, T24 hours Purity” value amounted to 94.25 % Area and the “Solution stability, T72 hours Purity” value worked out at 94.56 % Area. Moreover, in data set [8], the stability in buffer result was “stable”. Further, the “relative stability of the prodrugs in liver microsomes” value in data set [9] was “least stable”.
On to `CCCCC[C@@H](CC[C@@H]1[C@H]2Cc3cccc(OCC(=O)O)c3C[C@H]2C[C@H]1O)OC(=O)OC` [Prodrug IV, side chain methyl carbonate of treprostinil], for which, in data set [6], the solubility thermodynamic at 23 h is 12.5 mg/mL (≈ 27.9 mM), the solubility thermodynamic at 24 h is 12.2 mg/mL (≈ 27.2 mM) and the solubility thermodynamic at 72 h is 12.9 mg/mL (≈ 28.8 mM). Also, in data set [7] (setting [10]), the “Solution stability, T0 Purity” value was 99.19 % Area. For the same compound, in data set [7] (same vehicle), the “Solution stability, T24 hours Purity” value worked out at 99.02 % Area and the “Solution stability, T72 hours Purity” value is listed as 99.15 % Area. Also, the stability in buffer result in data set [8] is recorded as “stable”. Further, the “relative stability of the prodrugs in liver microsomes” value in [9] is given as “least stable”.
